Source: PMC9861386, “N-Heterocyclic Carbene-Iridium Complexes as Photosensitizers for In Vitro Photodynamic Therapy to Trigger Non-Apoptotic Cell Death in Cancer Cells” (Molecules, 2023)
Where two headings read alike, the source gives them in different places.

Assays:
NIH3T3 = assay: MTT cytotoxicity, 48 h; format: cell-based, murine
In short: (§1)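 Colorimetric MTT test after 48 h compound exposure in human prostate PC-3, human bladder T24 and murine fibroblast NIH-3T3 cells. GI50 is the concentration giving 50% growth inhibition, from three independent experiments; selectivity index uses NIH-3T3 versus each cancer line.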

[1] = test system: MCF7/FasR and MCF7/FasR/Bcl-xL cells; assay: ATP quantification (CellTiter-Glo); format: cell-based, human; settings: increasing concentration, 458 nm irradiation, 72 h
Method: ATP and glutathione (GSH) contents were measured with the Promega CellTiter-Glo (Cat#G7570) and GSH-Glo (cat#6911) luminescent assays, respectively, according to the manufacturer’s recommendations.
Figure 13 Evaluation of apoptotic biomarkers. MCF7/FasR and MCF7/FasR/Bcl-xL cells were irradiated at 458 nm in presence of the indicated concentration of complex 4a or treated with […] TNFα for 72 h. (A) Cytosolic extracts from MCF7/FasR and MCF7/FasR/Bcl-xL cells were separated by SDS-PAGE and probed with anti-PARP, anti-caspase-7 and anti-caspase-8. Migrations indicated are: full-length PARP p113, cleaved PARP p89, full-length caspase-7 and full-length caspase-8. (B) MTT, ATP and GSH assays were evaluated in duplicate samples. Data are expressed as percent (%) of untreated cells and are the means of 3 independent experiments (***, p < 0.0001, NS, not significant).

A549 lung cancer cells = assay: MTT cell viability, 72 h, dark or 458 nm irradiation; format: cell-based, human; settings: for GI50: 72 h, MTT
In short: (§2)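 Cells exposed to compounds (0.1% v/v DMSO final) for 4 h in the dark, then irradiated 10 min with 458 nm LEDs or kept dark, and incubated to 72 h at 37 °C. Viability by MTT (4 h, formazan absorbance 570 nm), normalised to DMSO controls; GI50 from nonlinear dose–response fits, ≥3 independent experiments.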

HeLa cervix cancer cells = assay: as above; format: cell-based, human; settings: for GI50: 72 h, MTT
In short: as §2

[2] = test system: PC-3 prostate cancer cells; assay: as above; format: cell-based, human; settings: for GI50: 72 h, MTT
In short: as §2

[3] = test system: MCF7/FasR breast cancer cells; assay: as above; format: cell-based, human; settings: for GI50: 72 h, MTT
In short: as §2

T24 = assay: MTT cytotoxicity, 48 h; format: cell-based, human
In short: as §1

PC-3 = assay: MTT cytotoxicity, 48 h; format: cell-based, human
In short: as §1

[4] = GI50 non-irradiated / GI50 irradiated

In the case of CC(C)[n+]1ccn2[c]1[Ir-3]13([c]4ccccc4-c4cccc[n+]41)([c]1ccccc1-c1cccc[n+]13)[c]1n(cc[n+]1C(C)C)C2.F[P-](F)(F)(F)(F)F [Complex 4a], the GI50 (NIH3T3) is reported as 3.3 µM, the ATP level [1] is reported as “loss of ATP” and the GI50 (A549 lung cancer cells; 458 nm irradiation 10 min, read-out: GI50 A549 Blue) is reported as 0.107 µM. For the same compound, the “PI A549” value (A549 lung cancer cells; [4]) was 3.3, the “SI vs MC3T3, A549 Blue” value (A549 lung cancer cells; blue light, GI50 MC3T3 / GI50 A549) was 16.3 and the “SI vs NIH, A549 Blue” value (A549 lung cancer cells; blue light, GI50 NIH-3T3 / GI50 A549) was 26.1. The GI50 (A549 lung cancer cells; dark, read-out: GI50 A549 Dark) was 0.355 µM, the “SI vs MC3T3, A549 Dark” value (A549 lung cancer cells; dark, GI50 MC3T3 / GI50 A549) was 6.9 and the “SI vs NIH, A549 Dark” value (A549 lung cancer cells; dark, GI50 NIH-3T3 / GI50 A549) was 10.3. For the same compound, the GI50 (HeLa cervix cancer cells; 458 nm irradiation 10 min, read-out: GI50 HeLa Blue) was 0.525 µM, the “PI HeLa” value (HeLa cervix cancer cells; [4]) was 2.5 and the “SI vs MC3T3, HeLa Blue” value (HeLa cervix cancer cells; blue light, GI50 MC3T3 / GI50 HeLa) was 3.3. The “SI vs NIH, HeLa Blue” value (HeLa cervix cancer cells; blue light, GI50 NIH-3T3 / GI50 HeLa) was 5.3, the GI50 (HeLa cervix cancer cells; dark, read-out: GI50 HeLa Dark) was 1.29 µM and the “SI vs MC3T3, HeLa Dark” value (HeLa cervix cancer cells; dark, GI50 MC3T3 / GI50 HeLa) was 1.9. For the same compound, the “SI vs NIH, HeLa Dark” value (HeLa cervix cancer cells; dark, GI50 NIH-3T3 / GI50 HeLa) was 2.8, the GI50 ([2]; 458 nm irradiation 10 min, read-out: GI50 PC-3 Blue) was 0.057 µM and the “PI PC-3” value [2, 4] was 4.1. For the same compound, the “SI vs MC3T3, PC-3 Blue” value ([2]; blue light, GI50 MC3T3 / GI50 PC-3) was 30.5, the “SI vs NIH, PC-3 Blue” value ([2]; blue light, GI50 NIH-3T3 / GI50 PC-3) was 48.9 and the GI50 ([2]; dark, read-out: GI50 PC-3 Dark) was 0.233 µM. For the same compound, the “SI vs MC3T3, PC-3 Dark” value ([2]; dark, GI50 MC3T3 / GI50 PC-3) was 10.6, the “SI vs NIH, PC-3 Dark” value ([2]; dark, GI50 NIH-3T3 / GI50 PC-3) was 15.8 and the GI50 ([3]; 458 nm irradiation 10 min, read-out: GI50 MCF7 Blue) was 0.05 µM. The “PI MCF7” value [3, 4] was 4.3, the “SI vs MC3T3, MCF7 Blue” value ([3]; blue light, GI50 MC3T3 / GI50 MCF7) was 34.8 and the “SI vs NIH, MCF7 Blue” value ([3]; blue light, GI50 NIH-3T3 / GI50 MCF7) was 55.8. The GI50 ([3]; dark, read-out: GI50 MCF7 Dark) was 0.213 µM, the “SI vs MC3T3, MCF7 Dark” value ([3]; dark, GI50 MC3T3 / GI50 MCF7) was 11.5 and the “SI vs NIH, MCF7 Dark” value ([3]; dark, GI50 NIH-3T3 / GI50 MCF7) was 17.2. For the same compound, the GI50 (T24; MTT) was 0.31 µM, the “SI (T24)” value (T24; NIH3T3 vs T24) was 10.6 and the GI50 (PC-3; MTT) was 0.48 µM. For the same compound, the “SI (PC-3)” value (PC-3; NIH3T3 vs PC-3) was 6.9.
